Reference: ChEMBL document CHEMBL3526030, “Transport of the coumarin metabolite 7-hydroxycoumarin glucuronide is mediated via multidrug resistance-associated proteins 3 and 4” (Drug Metab Dispos, 2012)

Experiments:
Assay type in all cases: ADME; call rule not given here
[1] = target: T1, ATP-binding cassette sub-family C member 4 (Homo sapiens, UniProt O15439); test: Activity at MRP4 (unknown origin) expressed in baculovirus-infected HEK293 cells assessed as drug transport at 400 uM after 10 mins by reversed-phase HPLC analysis in presence of ATP; settings: hek293, 10 min, BLD = below limit of detection
T1 sequence (O15439 whole entry): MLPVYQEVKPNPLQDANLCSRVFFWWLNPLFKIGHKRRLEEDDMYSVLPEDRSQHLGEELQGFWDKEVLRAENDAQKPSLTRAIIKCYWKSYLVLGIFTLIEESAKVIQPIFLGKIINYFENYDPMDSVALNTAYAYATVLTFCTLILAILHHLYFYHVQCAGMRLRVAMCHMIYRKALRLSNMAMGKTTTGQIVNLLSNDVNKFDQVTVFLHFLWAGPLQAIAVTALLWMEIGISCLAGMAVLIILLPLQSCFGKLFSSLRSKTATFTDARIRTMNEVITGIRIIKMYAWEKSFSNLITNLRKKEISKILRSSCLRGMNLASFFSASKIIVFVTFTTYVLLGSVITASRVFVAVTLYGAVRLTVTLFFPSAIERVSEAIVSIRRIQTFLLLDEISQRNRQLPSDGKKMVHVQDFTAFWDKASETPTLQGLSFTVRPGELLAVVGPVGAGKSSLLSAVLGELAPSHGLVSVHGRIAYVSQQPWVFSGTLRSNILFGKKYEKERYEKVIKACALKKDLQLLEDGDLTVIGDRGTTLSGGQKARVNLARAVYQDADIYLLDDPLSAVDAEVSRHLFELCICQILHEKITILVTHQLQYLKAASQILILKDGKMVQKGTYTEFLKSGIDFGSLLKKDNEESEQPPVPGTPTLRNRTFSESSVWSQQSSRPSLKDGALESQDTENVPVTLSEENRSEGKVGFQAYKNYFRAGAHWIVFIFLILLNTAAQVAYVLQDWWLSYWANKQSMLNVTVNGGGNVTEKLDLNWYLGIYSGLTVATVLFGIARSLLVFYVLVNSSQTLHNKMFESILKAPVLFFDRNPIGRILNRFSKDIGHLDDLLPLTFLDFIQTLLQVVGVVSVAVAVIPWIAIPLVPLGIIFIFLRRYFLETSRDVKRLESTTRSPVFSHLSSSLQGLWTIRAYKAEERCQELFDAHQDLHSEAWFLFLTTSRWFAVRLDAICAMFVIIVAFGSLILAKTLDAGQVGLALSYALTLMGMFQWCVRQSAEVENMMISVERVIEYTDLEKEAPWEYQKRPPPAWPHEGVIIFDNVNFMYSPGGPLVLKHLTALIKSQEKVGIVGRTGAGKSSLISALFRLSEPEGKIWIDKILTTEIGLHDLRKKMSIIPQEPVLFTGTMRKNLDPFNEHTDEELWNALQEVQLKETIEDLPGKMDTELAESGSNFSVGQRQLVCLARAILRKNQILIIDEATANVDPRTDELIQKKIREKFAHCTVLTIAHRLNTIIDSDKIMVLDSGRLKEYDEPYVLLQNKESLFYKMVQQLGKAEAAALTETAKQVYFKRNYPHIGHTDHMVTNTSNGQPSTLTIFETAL

[2] = target: T2, ATP-binding cassette sub-family C member 2 (Homo sapiens, UniProt Q92887); test: Activity at MRP2 (unknown origin) expressed in baculovirus-infected HEK293 cells assessed as drug transport at 400 uM after 10 mins by reversed-phase HPLC analysis in presence of ATP; settings: hek293, 10 min, BLD = below limit of detection
T2 sequence (Q92887 whole entry): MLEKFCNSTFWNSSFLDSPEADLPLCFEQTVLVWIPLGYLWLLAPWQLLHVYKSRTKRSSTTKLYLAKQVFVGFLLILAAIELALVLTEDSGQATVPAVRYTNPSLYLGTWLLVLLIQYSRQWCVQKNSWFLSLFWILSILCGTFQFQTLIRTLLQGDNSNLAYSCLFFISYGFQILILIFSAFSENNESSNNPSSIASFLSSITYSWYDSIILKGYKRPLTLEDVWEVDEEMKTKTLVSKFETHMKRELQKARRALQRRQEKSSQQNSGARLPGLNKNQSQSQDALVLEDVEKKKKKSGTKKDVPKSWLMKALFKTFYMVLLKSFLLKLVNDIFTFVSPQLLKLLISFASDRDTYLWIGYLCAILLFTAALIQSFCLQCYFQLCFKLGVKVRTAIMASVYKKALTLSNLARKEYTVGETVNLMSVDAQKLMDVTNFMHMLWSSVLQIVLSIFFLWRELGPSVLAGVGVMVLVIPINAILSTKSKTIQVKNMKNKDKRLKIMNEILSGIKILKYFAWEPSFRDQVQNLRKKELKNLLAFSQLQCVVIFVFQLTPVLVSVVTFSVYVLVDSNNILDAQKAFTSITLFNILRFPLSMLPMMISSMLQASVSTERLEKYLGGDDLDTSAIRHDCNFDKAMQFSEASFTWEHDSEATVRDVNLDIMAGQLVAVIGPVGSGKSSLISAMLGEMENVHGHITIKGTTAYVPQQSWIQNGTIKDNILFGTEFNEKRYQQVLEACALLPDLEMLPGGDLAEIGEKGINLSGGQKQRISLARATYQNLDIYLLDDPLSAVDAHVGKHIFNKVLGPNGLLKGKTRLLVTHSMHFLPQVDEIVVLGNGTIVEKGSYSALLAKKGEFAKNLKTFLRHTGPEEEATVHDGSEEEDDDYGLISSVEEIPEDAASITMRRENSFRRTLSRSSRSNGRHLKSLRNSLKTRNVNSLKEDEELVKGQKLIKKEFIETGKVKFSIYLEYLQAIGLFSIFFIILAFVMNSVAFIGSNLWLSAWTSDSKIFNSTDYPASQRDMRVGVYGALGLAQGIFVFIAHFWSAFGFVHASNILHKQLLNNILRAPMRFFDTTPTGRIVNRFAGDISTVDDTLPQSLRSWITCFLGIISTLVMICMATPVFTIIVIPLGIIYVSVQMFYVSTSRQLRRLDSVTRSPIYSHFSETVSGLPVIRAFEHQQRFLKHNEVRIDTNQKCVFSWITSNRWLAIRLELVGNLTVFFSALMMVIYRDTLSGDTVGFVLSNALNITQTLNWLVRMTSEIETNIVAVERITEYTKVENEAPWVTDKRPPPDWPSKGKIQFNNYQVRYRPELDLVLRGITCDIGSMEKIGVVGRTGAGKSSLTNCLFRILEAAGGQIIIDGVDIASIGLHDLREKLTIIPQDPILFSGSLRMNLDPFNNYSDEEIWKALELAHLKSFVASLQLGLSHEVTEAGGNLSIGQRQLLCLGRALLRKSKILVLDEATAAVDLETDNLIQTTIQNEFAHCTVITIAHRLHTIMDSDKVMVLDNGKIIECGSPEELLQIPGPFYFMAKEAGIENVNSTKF

[3] = Activity at P-gp (unknown origin) expressed in baculovirus-infected HEK293 cells assessed as drug transport at 400 uM after 10 mins by reversed-phase HPLC analysis in presence of ATP; settings: human, hek293, 10 min
[4] = target: T3, ATP-binding cassette sub-family C member 3 (Homo sapiens, UniProt O15438); test: Activity at MRP3 (unknown origin) expressed in baculovirus-infected HEK293 cells assessed as drug transport at 400 uM after 10 mins by reversed-phase HPLC analysis in presence of ATP; settings: hek293, 10 min, BLD = below limit of detection
T3 sequence (O15438 whole entry): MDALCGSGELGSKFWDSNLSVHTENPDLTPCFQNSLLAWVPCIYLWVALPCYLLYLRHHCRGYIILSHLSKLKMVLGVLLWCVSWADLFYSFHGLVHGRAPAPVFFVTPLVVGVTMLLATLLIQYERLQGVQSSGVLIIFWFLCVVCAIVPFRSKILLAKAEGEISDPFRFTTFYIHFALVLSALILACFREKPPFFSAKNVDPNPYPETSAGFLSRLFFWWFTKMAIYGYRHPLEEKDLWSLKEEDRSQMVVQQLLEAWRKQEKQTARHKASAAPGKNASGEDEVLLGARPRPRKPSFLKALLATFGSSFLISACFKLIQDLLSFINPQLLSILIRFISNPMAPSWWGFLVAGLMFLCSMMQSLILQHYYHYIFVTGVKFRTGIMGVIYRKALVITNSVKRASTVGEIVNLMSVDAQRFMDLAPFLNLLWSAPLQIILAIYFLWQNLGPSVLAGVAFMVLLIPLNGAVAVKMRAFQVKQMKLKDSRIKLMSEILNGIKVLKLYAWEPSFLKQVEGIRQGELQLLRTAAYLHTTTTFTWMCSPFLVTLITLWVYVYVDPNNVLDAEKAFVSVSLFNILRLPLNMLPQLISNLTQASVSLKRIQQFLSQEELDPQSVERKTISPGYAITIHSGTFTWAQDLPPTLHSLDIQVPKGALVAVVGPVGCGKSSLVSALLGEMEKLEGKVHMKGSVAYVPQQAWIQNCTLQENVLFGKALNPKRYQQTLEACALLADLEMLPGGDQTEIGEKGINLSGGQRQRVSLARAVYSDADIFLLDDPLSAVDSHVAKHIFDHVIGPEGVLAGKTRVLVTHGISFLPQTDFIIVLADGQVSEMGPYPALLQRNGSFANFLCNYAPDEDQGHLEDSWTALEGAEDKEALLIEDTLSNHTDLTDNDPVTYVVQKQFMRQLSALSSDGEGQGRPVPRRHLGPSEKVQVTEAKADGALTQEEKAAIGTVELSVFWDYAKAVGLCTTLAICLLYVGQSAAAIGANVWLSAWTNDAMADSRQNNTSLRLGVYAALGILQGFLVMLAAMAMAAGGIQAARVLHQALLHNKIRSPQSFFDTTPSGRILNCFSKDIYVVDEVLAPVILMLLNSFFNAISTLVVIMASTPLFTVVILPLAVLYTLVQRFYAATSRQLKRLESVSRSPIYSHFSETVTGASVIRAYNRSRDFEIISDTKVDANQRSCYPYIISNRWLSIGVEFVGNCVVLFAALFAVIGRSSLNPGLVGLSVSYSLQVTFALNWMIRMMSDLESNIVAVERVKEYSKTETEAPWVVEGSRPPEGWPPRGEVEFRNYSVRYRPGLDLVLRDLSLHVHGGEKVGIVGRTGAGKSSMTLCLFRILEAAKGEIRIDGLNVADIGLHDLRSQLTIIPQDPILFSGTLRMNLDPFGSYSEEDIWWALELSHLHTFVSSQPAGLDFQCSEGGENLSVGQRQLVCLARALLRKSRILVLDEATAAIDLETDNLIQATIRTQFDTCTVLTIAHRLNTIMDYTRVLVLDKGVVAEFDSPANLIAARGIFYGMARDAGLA

[5] = target: T4, Multidrug resistance-associated protein 1 (Homo sapiens, UniProt P33527); test: Activity at MRP1 (unknown origin) expressed in baculovirus-infected HEK293 cells assessed as drug transport at 400 uM after 10 mins by reversed-phase HPLC analysis in presence of ATP; settings: hek293, 10 min, BLD = below limit of detection
T4 sequence (P33527 whole entry): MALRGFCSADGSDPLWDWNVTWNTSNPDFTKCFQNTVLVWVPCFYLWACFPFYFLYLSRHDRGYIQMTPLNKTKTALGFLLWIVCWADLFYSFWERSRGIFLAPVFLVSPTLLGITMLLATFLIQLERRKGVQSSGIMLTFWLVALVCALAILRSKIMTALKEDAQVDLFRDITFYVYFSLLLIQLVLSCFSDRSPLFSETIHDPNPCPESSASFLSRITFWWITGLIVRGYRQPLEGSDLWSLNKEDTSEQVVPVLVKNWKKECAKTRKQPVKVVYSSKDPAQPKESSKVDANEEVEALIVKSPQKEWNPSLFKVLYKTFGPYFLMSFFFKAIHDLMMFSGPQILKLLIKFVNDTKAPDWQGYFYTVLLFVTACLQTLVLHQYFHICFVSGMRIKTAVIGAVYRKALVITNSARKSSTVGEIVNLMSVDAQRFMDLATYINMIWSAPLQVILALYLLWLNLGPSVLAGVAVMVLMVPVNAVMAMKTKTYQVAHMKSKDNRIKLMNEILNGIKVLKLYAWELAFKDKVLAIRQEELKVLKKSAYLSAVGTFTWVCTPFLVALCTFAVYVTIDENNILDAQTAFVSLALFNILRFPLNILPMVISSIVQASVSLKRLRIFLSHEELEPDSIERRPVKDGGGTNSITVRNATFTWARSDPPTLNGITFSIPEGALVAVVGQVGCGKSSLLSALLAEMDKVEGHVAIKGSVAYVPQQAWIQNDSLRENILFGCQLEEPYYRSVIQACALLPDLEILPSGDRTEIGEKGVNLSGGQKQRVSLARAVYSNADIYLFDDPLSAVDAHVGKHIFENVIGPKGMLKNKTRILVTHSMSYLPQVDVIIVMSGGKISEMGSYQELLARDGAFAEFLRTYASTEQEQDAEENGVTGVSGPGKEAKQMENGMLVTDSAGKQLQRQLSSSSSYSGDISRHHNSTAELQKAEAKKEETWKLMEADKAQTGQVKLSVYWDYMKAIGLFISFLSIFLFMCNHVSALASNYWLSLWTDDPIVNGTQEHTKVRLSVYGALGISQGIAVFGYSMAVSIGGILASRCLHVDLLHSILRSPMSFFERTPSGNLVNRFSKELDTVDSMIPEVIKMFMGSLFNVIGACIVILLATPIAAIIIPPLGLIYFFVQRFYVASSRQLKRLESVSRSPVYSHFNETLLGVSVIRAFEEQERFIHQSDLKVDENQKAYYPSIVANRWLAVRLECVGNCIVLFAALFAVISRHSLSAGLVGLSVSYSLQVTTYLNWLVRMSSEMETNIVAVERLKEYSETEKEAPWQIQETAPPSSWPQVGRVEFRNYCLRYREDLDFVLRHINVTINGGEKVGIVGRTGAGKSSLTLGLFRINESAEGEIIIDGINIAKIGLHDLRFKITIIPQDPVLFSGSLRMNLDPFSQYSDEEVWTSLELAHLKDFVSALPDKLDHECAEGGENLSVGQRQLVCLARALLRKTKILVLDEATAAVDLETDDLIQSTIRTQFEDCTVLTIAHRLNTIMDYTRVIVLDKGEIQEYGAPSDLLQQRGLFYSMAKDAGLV

[6] = target: T5, Broad substrate specificity ATP-binding cassette transporter ABCG2 (Homo sapiens, UniProt Q9UNQ0); test: Activity at BCRP (unknown origin) expressed in baculovirus-infected HEK293 cells assessed as drug transport at 400 uM after 10 mins by reversed-phase HPLC analysis in presence of ATP; settings: hek293, 10 min, BLD = below limit of detection
T5 sequence (Q9UNQ0 whole entry): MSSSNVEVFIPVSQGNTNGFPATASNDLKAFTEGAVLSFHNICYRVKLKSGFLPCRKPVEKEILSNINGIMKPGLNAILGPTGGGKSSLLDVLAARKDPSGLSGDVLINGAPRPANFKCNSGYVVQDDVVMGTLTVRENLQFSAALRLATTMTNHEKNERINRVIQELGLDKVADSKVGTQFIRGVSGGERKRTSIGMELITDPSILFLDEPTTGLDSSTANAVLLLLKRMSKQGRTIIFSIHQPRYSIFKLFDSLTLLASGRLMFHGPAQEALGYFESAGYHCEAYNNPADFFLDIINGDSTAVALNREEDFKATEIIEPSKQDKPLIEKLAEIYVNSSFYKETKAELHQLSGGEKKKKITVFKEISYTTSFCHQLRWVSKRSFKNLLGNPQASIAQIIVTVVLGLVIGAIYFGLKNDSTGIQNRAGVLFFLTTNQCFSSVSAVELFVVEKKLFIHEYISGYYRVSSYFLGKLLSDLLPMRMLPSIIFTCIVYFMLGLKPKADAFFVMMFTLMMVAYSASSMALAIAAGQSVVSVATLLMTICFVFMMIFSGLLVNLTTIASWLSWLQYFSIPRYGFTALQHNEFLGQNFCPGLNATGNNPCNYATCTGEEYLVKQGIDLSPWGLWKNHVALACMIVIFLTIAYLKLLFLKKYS

[7] = target: T5, Broad substrate specificity ATP-binding cassette transporter ABCG2; test: Activity at BCRP (unknown origin) expressed in baculovirus-infected HEK293 cells assessed as drug transport at 400 uM after 10 mins by reversed-phase HPLC analysis in presence of AMP; settings: hek293, 10 min, BLD = below limit of detection
[8] = target: T3, ATP-binding cassette sub-family C member 3; test: Activity at MRP3 (unknown origin) expressed in baculovirus-infected HEK293 cells assessed as drug transport at 400 uM after 10 mins by reversed-phase HPLC analysis in presence of AMP; settings: hek293, 10 min, BLD = below limit of detection
[9] = target: T1, ATP-binding cassette sub-family C member 4; test: Activity at MRP4 (unknown origin) expressed in baculovirus-infected HEK293 cells assessed as drug transport at 400 uM after 10 mins by reversed-phase HPLC analysis in presence of AMP; settings: hek293, 10 min, BLD = below limit of detection
[10] = target: T2, ATP-binding cassette sub-family C member 2; test: Activity at MRP2 (unknown origin) expressed in baculovirus-infected HEK293 cells assessed as drug transport at 400 uM after 10 mins by reversed-phase HPLC analysis in presence of AMP; settings: hek293, 10 min, BLD = below limit of detection
[11] = Activity at P-gp (unknown origin) expressed in baculovirus-infected HEK293 cells assessed as drug transport at 400 uM after 10 mins by reversed-phase HPLC analysis in presence of AMP; settings: human, hek293, 10 min, BLD = below limit of detection
[12] = target: T4, Multidrug resistance-associated protein 1; test: Activity at MRP1 (unknown origin) expressed in baculovirus-infected HEK293 cells assessed as drug transport at 400 uM after 10 mins by reversed-phase HPLC analysis in presence of AMP; settings: hek293, 10 min, BLD = below limit of detection

With O=c1ccc2ccc(O)cc2o1 [UMBELLIFERONE] the Drug transport [1] was “BLD”, the Drug transport [2] was “BLD” and the Drug transport ([3]; BLD = below limit of detection) was “BLD”. The Drug transport [4] was “BLD”, the Drug transport [5] was “BLD” and the Drug transport [6] was “BLD”.
In the case of O=C(O)[C@H]1O[C@@H](Oc2ccc3ccc(=O)oc3c2)[C@H](O)[C@@H](O)[C@@H]1O, the Drug transport [7] was “BLD”, the Drug transport [8] was “BLD” and the Drug transport [9] was “BLD”. For the same compound, the Drug transport [10] was “BLD”, the Drug transport [3] was “Not Active” and the Drug transport [11] was “BLD”. The Drug transport [12] was “BLD”.
